The results in this text go back to patent US9102635B2, “Substituted bisphenyl butanoic acid derivatives as NEP inhibitors with improved in vivo efficacy” (NOVARTIS AG, priority 2013, dated 2015).

Assay [1] deals with T1, recombinant human neutral endopeptidase (Homo sapiens, UniProt P08473).
T1 construct: made in house; host or cells: insect cells
Nature of the assay: in vitro inhibition of recombinant human neutral endopeptidase (fluorescence lifetime assay). Type of assay: biochemical. The following applies: 1 hour pre-incubation, 1 hour reaction, room temperature, pH 7.4; read-out: Human NEP IC50. The text has this:
The activity of a compound according to the present invention can be assessed by the following in vitro and in vivo methods and/or by the following in vitro and in vivo methods well-described in the art. See Doering K, Meder G, Hinnenberger M, Woelcke J, Mayr L M, Hassiepen U, (2009) “A fluorescence lifetime-based assay for protease inhibitor profiling on human kallikrein 7”, Biomol Screen, January; 14(1):1-9.
In particular, the in vitro inhibition of recombinant human neutral endopeptidase can be determined as follows:
Recombinant human neutral endopeptidase (expressed in insect cells and purified using standard methods, final concentration 7 pM) is pre-incubated with test compounds at various concentrations for 1 hour at room temperature in 10 mM sodium phosphate buffer at pH 7.4, containing 150 mM NaCl and 0.05% (w/v) CHAPS. The enzymatic reaction is started by the addition of a synthetic peptide substrate Cys(PT14)-Arg-Arg-Leu-Trp-OH to a final concentration of 0.7 μM. Substrate hydrolysis leads to an increase in fluorescence lifetime (FLT) of PT14 measured by means of a FLT reader as described by Doering et al. (2009) as referenced supra. The effect of the compound on the enzymatic activity was determined after 1 hour (t=60 min) incubation at room temperature. […]

The target of another assay is T2, peripheral NEP (Rattus norvegicus, UniProt P07861).
T2 construct: from tissue; host or cells: whole animal: adult male Wistar Han rats (Charles River Labs), peripheral tissues
T2 sequence (P07861 1-750): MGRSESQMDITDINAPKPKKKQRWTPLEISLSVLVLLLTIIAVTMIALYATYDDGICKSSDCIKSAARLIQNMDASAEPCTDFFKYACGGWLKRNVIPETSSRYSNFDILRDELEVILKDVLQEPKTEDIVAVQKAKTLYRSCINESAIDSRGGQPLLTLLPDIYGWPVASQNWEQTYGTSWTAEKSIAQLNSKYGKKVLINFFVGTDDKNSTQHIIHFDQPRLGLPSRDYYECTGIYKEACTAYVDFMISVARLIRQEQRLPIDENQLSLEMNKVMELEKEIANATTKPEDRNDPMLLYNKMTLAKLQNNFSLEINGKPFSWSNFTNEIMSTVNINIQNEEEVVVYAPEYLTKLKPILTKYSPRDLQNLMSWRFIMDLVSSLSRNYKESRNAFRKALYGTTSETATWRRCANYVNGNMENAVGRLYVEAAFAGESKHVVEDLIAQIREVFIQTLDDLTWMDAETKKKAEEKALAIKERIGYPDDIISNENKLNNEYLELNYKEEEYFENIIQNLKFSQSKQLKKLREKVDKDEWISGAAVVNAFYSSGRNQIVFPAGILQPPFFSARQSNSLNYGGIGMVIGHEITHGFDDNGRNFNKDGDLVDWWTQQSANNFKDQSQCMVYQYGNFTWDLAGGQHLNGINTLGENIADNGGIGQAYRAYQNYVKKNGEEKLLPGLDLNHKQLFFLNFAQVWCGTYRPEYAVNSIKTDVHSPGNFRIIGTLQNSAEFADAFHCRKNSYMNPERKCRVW
The assay is described as follows: ANP potentiation model in conscious rats (plasma ANP after oral dose). Type of assay: in vivo, Wistar Han (WH) rats. The following applies: for PANP % of baseline: 0- to 8-hr time-weighted average of plasma ANP, ANP infusion 450 ng/kg/min i.v. The protocol:
In particular, the in vivo inhibition of recombinant human neutral endopeptidase can be determined as follows:
Thus, the potentiation of plasma ANP was used as an index of the extent and duration of inhibition of peripheral NEP by the orally administered compounds.
They were housed on a 12-hr light/dark cycle (light: 6 am to 6 pm) at temperature and relative humidity set points of 72° F. and 55%, respectively. […] In this case, the evening before the experiment (˜5 pm) all but two of the rat's chow pellets were removed. On the morning of the experiment, any remaining food was removed. […] Food was returned at the experiment terminus.
Rats were surgically instrumented with catheters to allow collection of arterial blood samples and intravenous (i.v.) administration of ANP. Rats were anesthetized and maintained in a surgical plane of anesthesia with isoflurane (2% in 100% oxygen). Ophthalmic lubricant was applied to each eye to prevent corneal irritation. Meloxicam (0.2 mg/kg s.c.) was administered for analgesia. If necessary for pain management, a second injection of meloxicam was administered on the first post-operative day. Also, a dose of penicillin G (50,000 U/kg i.m.) was administered pre-operatively to prevent infection.
Under aseptic surgical conditions, a femoral artery and vein were isolated and catheters inserted. Catheters consisted of a ˜55-cm length of Tygon (PVC) Microbore tubing (0.020″, 0.060″ O.D.) bonded with cyclohexanone to a 4.5-cm length of polyurethane (0.012″ I.D., 0.025″ O.D., Micro-Renathane type MRE-025, Braintree Scientific, Inc., Braintree, Mass.) tubing. The catheters were tunneled subcutaneously and exteriorized in the mid-dorsal thoracic/abdominal region. Catheters exited through a subcutaneously anchored tether/swivel system which allowed the animal to move unrestrained in a specialized Plexiglas cage with perforated solid flooring. Catheters were flushed with sterile 0.9% saline and locked with 200 U/mL heparin in sterile 0.9% saline after the surgery was completed.
The rats were allowed to recover for at least one week before being studied while conscious and unrestrained. Rats were infused intravenously (450 ng/kg/min) with rat ANP (ANP (1-28), Product #14-5-41, American Peptide Company, Inc., Sunnyvale, Calif.). After 1 hr of ANP infusion, rats were treated by oral gavage with 1 mL/kg of vehicle (0.5% methylcellulose+0.1% Tween 80) or a selected dose of NEP inhibitor. ANP infusion was continued for an additional 8 hr. Arterial blood samples (0.20 mL) were withdrawn from the femoral arterial cannulas at various times (baseline or time 0, 0.25, 0.5, 1, 2, 4, 6, and 8 hr) into a collection tube containing 0.004 mL EDTA/protease inhibitor (PI) cocktail. Blood samples were centrifuged at 4° C. and 20K g to separate plasma. Plasma samples were aliquoted and frozen (−70° C.) for later analysis of plasma ANP (PANP) levels. The O— to 8-hr time-weighted averages of the PANP concentrations expressed as a percent of the baseline (time 0) PANP values were used to generate dose-response relationships.
The blood collection cocktail consisted of broad-spectrum serine and cysteine PIs and EDTA. […] It also anticoagulated the blood.
The frozen plasma sample was thawed on ice and 10 μL of plasma was diluted 1:10 in 1× assay buffer supplied with the kit. Ten μL of the diluted sample was then assayed. The manufacturer's instructions were followed for the assay protocol (total volume per well was expanded to 50 μl with 1× assay buffer). Absorbance was read (Molecular Devices SpectraMax Paradigm Multi-Mode Detection Platform) at 450 nm within ten minutes of the assay termination.

One may read the IC50 as the midpoint of a concentration-inhibition curve.

T1 sequence (P08473 whole entry): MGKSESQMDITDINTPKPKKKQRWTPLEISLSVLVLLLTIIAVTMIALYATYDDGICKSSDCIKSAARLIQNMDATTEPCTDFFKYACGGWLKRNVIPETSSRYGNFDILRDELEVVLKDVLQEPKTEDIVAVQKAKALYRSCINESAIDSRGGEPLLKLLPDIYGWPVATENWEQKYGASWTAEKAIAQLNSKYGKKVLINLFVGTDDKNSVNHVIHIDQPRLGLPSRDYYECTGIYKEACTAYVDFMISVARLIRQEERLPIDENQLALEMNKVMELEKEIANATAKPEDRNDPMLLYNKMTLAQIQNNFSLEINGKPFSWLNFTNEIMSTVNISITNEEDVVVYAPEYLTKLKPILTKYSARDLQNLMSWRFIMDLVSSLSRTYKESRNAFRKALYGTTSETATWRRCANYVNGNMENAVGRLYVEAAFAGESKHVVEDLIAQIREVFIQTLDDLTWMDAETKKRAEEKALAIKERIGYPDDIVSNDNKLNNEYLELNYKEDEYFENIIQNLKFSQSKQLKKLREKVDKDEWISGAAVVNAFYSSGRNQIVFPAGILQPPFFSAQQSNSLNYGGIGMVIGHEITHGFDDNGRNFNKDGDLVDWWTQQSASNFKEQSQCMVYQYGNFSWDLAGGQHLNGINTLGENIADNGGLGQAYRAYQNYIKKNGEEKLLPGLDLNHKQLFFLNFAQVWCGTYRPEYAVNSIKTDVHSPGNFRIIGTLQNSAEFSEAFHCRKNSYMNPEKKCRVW

For the compound `COc1ccc(F)cc1-c1ccc(C[C@H](CC(=O)O)NC(=O)c2n[nH]c(=O)o2)cc1` [Example 1, (R)-4-(5′-fluoro-2′-methoxy-[1,1-biphenyl]-4-yl)-3-(5-oxo-4,5-dihydro-1,3,4-oxadiazole-2-carboxamido)butanoic acid], the IC50 in assay [1] was 0.06 nM. The “in vivo efficacy compared to Example 5-46 of WO2010/136493” value on peripheral NEP (ANP potentiation model, oral) is reported as “superior efficacy”. Further, the “PANP % of baseline” value on peripheral NEP (dose 1 mg/kg oral gavage) is given as 141 % of baseline; at peripheral NEP (dose 3 mg/kg oral gavage) it was 183 % of baseline; at peripheral NEP (dose 10 mg/kg oral gavage) it was 238 % of baseline.
For the compound `O=C(O)C[C@@H](Cc1ccc(-c2cccc(Cl)c2)cc1)NC(=O)c1n[nH]c(=O)o1` [Example 5-46 of WO2010/136493, reference compound], the “PANP % of baseline” value on peripheral NEP (dose 3 mg/kg oral gavage) was 137 % of baseline; on peripheral NEP (dose 10 mg/kg oral gavage) it was 126 % of baseline; at peripheral NEP (dose 30 mg/kg oral gavage), 185 % of baseline; at peripheral NEP (dose 100 mg/kg oral gavage) it was 254 % of baseline.
